These results are taken from ChEMBL document CHEMBL1201862, “PubChem BioAssay data set” (2004).

SMILES strings stand for the structures.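 Cultured in 96-well plates, cells were exposed to test compound for 48 hours across five concentrations. At the GI50, growth is halved.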 Activity calls are given as the source filed them. Rule as the data show it: active = GI50 up to about 1.1 µM and inactive = higher.

Some test systems named below: SF-539; OVCAR-3; SK-MEL-5; SR; HCT-15; SF-268; RPMI-8226; NCI-H23; UO-31; EKVX; Hs-578T; COLO 205; T47D; OVCAR-5; IGROV-1; SNB-75; SNB-19; PC-3; A498; MCF7.
Experiment in all cases: NCI anticancer screen, dose series, 48 h

For the compound `CCOC(=O)C(Cc1cc(OC)c(CC(C(=O)OCC)C(=O)OCC)cc1OC)C(=O)OCC`, the GI50 was 29.2 µM (inactive) in the assay with SF-539; > 100 µM (inactive) with OVCAR-3; > 100 µM (inactive) in the assay with SK-MEL-5; > 100 µM (inactive) in the assay with SR; > 100 µM in the assay on HCT-15; > 94.4 µM (inactive) in the assay on SF-268. The GI50 with RPMI-8226 is > 100 µM (inactive); with NCI-H23, > 100 µM (inactive); with UO-31, 44 µM (inactive); in the assay on EKVX, > 100 µM (inactive); with Hs-578T it was > 100 µM (inactive); in the assay with COLO 205, > 100 µM (inactive). For the same compound, the GI50 was > 100 µM (inactive) with T47D; > 100 µM (inactive) with OVCAR-5; > 100 µM (inactive) in the assay on IGROV-1; 28.6 µM (inactive) with SNB-75; > 68.5 µM (inactive) in the assay with SNB-19; > 100 µM (inactive) in the assay on PC-3. Besides, the GI50 with A498 and in the assay with MCF7 was > 100 µM (inactive) in each case.

Regarding `Cc1nn(-c2ccccc2)c(C)c1/C=N/N=C1\SCC(=O)N1c1ccccc1`, the GI50 with SF-539 was 22.9 µM (inactive); in the assay with OVCAR-3, 24.9 µM (inactive); with SK-MEL-5, 15 µM (inactive); with SR it was 25.1 µM (inactive); in the assay with HCT-15, 17.9 µM; with SF-268, 28.4 µM (inactive). Besides, the GI50 with RPMI-8226 is 13.4 µM (inactive); with NCI-H23, 27.5 µM (inactive); in the assay on UO-31, 21.5 µM (inactive); with EKVX, 12.4 µM (inactive); in the assay with Hs-578T, 37.2 µM (inactive); with COLO 205, 14.9 µM (inactive). Further, the GI50 is 26.5 µM (inactive) in the assay with T47D; 27.7 µM (inactive) in the assay with OVCAR-5; 32.3 µM (inactive) in the assay with IGROV-1; 20.4 µM (inactive) in the assay on SNB-75; 43.1 µM (inactive) in the assay with SNB-19; 19.2 µM (inactive) with PC-3. Further, the GI50 with A498 is 23.6 µM (inactive); with MCF7, 27.4 µM (inactive).

For `COc1ccc(C)cc1NC(=S)N/N=C/c1ccco1`, the GI50 is 27.6 µM (inactive) in the assay on SF-539; 49.2 µM (inactive) in the assay with OVCAR-3; 14.7 µM (inactive) with SK-MEL-5; 11.3 µM (inactive) in the assay with SR; 34.2 µM with HCT-15; 56.1 µM (inactive) in the assay with SF-268. Moreover, the GI50 with RPMI-8226 was 21.4 µM (inactive); in the assay with NCI-H23, 53.2 µM (inactive); in the assay on UO-31 it was 79.3 µM (inactive); with EKVX, 16.7 µM (inactive); in the assay on Hs-578T, 66.7 µM (inactive); with COLO 205 it was 21.8 µM (inactive). Also, the GI50 with T47D is 25.4 µM (inactive); in the assay on OVCAR-5 it was > 100 µM (inactive); in the assay on IGROV-1, 35.8 µM (inactive); in the assay on SNB-75 it was 39.9 µM (inactive); in the assay with SNB-19, 99.3 µM (inactive); with PC-3 it was 43.4 µM (inactive). For the same compound, the GI50 is 57.3 µM (inactive) in the assay on A498 and 4.94 µM (inactive) with MCF7.

Consider `CCN(CC)c1ccc(/C=C/C=C2C(=O)NC(=S)NC2=O)cc1`, for which the GI50 is 13.9 µM (inactive) with SF-539; 16.6 µM (inactive) in the assay on OVCAR-3; 37.5 µM (inactive) in the assay on SK-MEL-5; 2.53 µM (inactive) with SR; > 38.7 µM in the assay on HCT-15; 22.5 µM (inactive) with SF-268. Also, the GI50 in the assay with RPMI-8226 was > 100 µM (inactive); with NCI-H23 it was > 67.5 µM (inactive); with UO-31, > 71.8 µM (inactive); in the assay with EKVX, > 62.4 µM (inactive); in the assay on Hs-578T it was 11 µM (inactive); with COLO 205 it was > 100 µM (inactive). Also, the GI50 in the assay on T47D is > 100 µM (inactive); in the assay on OVCAR-5 it was > 100 µM (inactive); with IGROV-1, > 100 µM (inactive); in the assay on SNB-75, 28.9 µM (inactive); in the assay on SNB-19, 43.7 µM (inactive); in the assay with PC-3, > 69.3 µM (inactive). The GI50 in the assay on A498 is > 100 µM (inactive); with MCF7, 27 µM (inactive).

In the case of `CCC(=O)NCCc1c[nH]c2ccc(OC)cc12`, the GI50 is > 100 µM (inactive) in the assay on SF-539; > 100 µM (inactive) in the assay on OVCAR-3; > 100 µM (inactive) in the assay on SK-MEL-5; > 100 µM (inactive) with SR; > 100 µM in the assay on HCT-15; > 100 µM (inactive) in the assay with SF-268. Besides, the GI50 in the assay with RPMI-8226, in the assay on NCI-H23, with UO-31, with EKVX, in the assay with Hs-578T and in the assay on COLO 205 was > 100 µM (inactive) in each case. Moreover, the GI50 with T47D, in the assay with OVCAR-5, in the assay on IGROV-1, in the assay on SNB-75, in the assay with SNB-19 and in the assay on PC-3 was > 100 µM (inactive) in each case. Moreover, the GI50 in the assay with A498 and in the assay with MCF7 was > 100 µM (inactive) in each case.

`COC(=O)c1c(OC(C)=O)ccc2c1c1c(n2Cc2ccccc2)C(=O)c2ccccc2C1=O`: the GI50 in the assay with SF-539 was 17.9 µM (inactive); with OVCAR-3, 17.6 µM (inactive); with SK-MEL-5, 14.2 µM (inactive); in the assay on SR, 24.9 µM (inactive); in the assay with HCT-15, 19.7 µM; in the assay with SF-268, 26.5 µM (inactive). The GI50 with RPMI-8226 was 15.7 µM (inactive); in the assay on NCI-H23, 19.5 µM (inactive); in the assay on UO-31 it was 37.2 µM (inactive); in the assay on EKVX, 19.6 µM (inactive); in the assay with Hs-578T, 19.9 µM (inactive); in the assay with COLO 205, 16.9 µM (inactive). Further, the GI50 in the assay with T47D is 20 µM (inactive); in the assay with OVCAR-5 it was 20.1 µM (inactive); in the assay with IGROV-1, 20.1 µM (inactive); with SNB-75, 22.2 µM (inactive); in the assay on SNB-19, 35.3 µM (inactive); with PC-3, 22.4 µM (inactive). The GI50 with A498 is 19.4 µM (inactive); with MCF7 it was 33.9 µM (inactive).

For `C=C1C(=O)OC2CC(C)C(C(O)CC(C)O)=CCC12` (stereo not given), the GI50 with SF-539 is 15 µM (inactive); in the assay with OVCAR-3, 9.62 µM (inactive); in the assay with SK-MEL-5, 19.4 µM (inactive); in the assay with SR it was 8.13 µM (inactive); in the assay on HCT-15, 14.2 µM; in the assay on SF-268, 14.3 µM (inactive). Besides, the GI50 with RPMI-8226 was 6.67 µM (inactive); in the assay on NCI-H23, 15.6 µM (inactive); in the assay on UO-31, 16.2 µM (inactive); in the assay on EKVX, 12.5 µM (inactive); in the assay with Hs-578T, 20.9 µM (inactive); with COLO 205, 10.5 µM (inactive). Besides, the GI50 was 7.08 µM (inactive) in the assay on T47D; 15 µM (inactive) in the assay on OVCAR-5; 16.8 µM (inactive) in the assay with IGROV-1; 18.3 µM (inactive) in the assay on SNB-75; 28.4 µM (inactive) in the assay on SNB-19; 21.6 µM (inactive) in the assay with PC-3. For the same compound, the GI50 with A498 is 16.9 µM (inactive); in the assay with MCF7 it was 13.9 µM (inactive).

Regarding `CCCCCCCCC[n+]1cccc(C2C(C(=O)OCC)=C(C)NC(C)=C2C(=O)OCC)c1`, the GI50 in the assay on SF-539 is 4.15 µM (inactive); with OVCAR-3 it was 3.86 µM (inactive); with SK-MEL-5 it was 1.88 µM (inactive); with SR it was 5.74 µM (inactive); with HCT-15, 16 µM; with SF-268, 4.67 µM (inactive). The GI50 is 1.54 µM (inactive) with RPMI-8226; 4.36 µM (inactive) in the assay with NCI-H23; 16.2 µM (inactive) in the assay with UO-31; 11.9 µM (inactive) in the assay with EKVX; 3.1 µM (inactive) in the assay with Hs-578T; 2.56 µM (inactive) in the assay on COLO 205. Further, the GI50 was 5.04 µM (inactive) in the assay with T47D; 10.7 µM (inactive) in the assay with OVCAR-5; 2.02 µM (inactive) in the assay on IGROV-1; 3.67 µM (inactive) in the assay with SNB-75; 3.45 µM (inactive) with SNB-19; 4.27 µM (inactive) in the assay on PC-3. Further, the GI50 in the assay on A498 is 18.2 µM (inactive); in the assay with MCF7 it was 2.6 µM (inactive).

Regarding `CC1OC(CC(=O)O)CC2=C1C(=O)c1c(O)cccc1C2=O` (stereo not given) [NANAOMYCIN], the GI50 was 1.04 µM (active) in the assay with SF-539; 0.0817 µM (active) in the assay on OVCAR-3; 0.289 µM (active) with SK-MEL-5; 0.0336 µM (active) in the assay with SR; 0.0538 µM in the assay with HCT-15; 0.316 µM (active) in the assay on SF-268. Moreover, the GI50 with RPMI-8226 was 0.0447 µM (active); with NCI-H23 it was 0.56 µM (active); in the assay with UO-31, 0.483 µM (active); with EKVX, 0.708 µM (active); in the assay on Hs-578T it was 0.142 µM (active); in the assay on COLO 205, 0.0474 µM (active). The GI50 in the assay on T47D is 0.188 µM (active); in the assay with OVCAR-5, 1.39 µM (inactive); with IGROV-1, 0.36 µM (active); in the assay with SNB-75, 1.5 µM (inactive); with SNB-19 it was 1.66 µM (inactive); in the assay on PC-3, 0.241 µM (active). Moreover, the results for the GI50 with A498 and with MCF7 were 0.9 µM (active) and 0.142 µM (active), respectively.

Regarding `Cn1c(=O)c2c(nc3n(Cc4ccccc4)c(=O)c(Br)cn23)n(C)c1=O`, the GI50 in the assay with SF-539 is > 100 µM (inactive); in the assay with OVCAR-3, > 100 µM (inactive); in the assay on SK-MEL-5, > 100 µM (inactive); in the assay on SR, 1.71 µM (inactive); in the assay on HCT-15 it was > 100 µM; in the assay with SF-268, > 100 µM (inactive). Further, the GI50 with RPMI-8226, in the assay on NCI-H23, with UO-31, with EKVX, in the assay with Hs-578T and in the assay on COLO 205 was > 100 µM (inactive) in each case. Further, the GI50 with T47D, in the assay on OVCAR-5, with IGROV-1, with SNB-75, in the assay with SNB-19 and in the assay with PC-3 was > 100 µM (inactive) each time. Besides, the GI50 with A498 and with MCF7 was > 100 µM (inactive) in each case.
